According to US9968098B2, “Synergistic Bacillus thuringiensis subsp. aizawai, Bacillus thuringiensis subsp. kurstaki and cyantraniliprole mixtures for diamondback moth, beet armyworm, southwestern corn borer, and corn earworm” (Valent BioSciences LLC, priority 2016, dated 2018):
Where two headings read alike, the source gives them in different places.

Legend:
soybean looper larvae = assay: Leaf dip test, soybean looper larvae; assay type: in vivo, Chrysodeixis includens; details: foliar, Bta/Btk 0.26 ppm, cyantraniliprole 1.0 ppm, mixture 0.26 ppm + 1.0 ppm (Ratio 1:15), read-out: % Efficacy
Method: Belt® was used as the source of cyantraniliprole. […] In each example below, the studies were conducted as follows.
(§1) For these tests, standardized laboratory leaf dip methods were used to inoculate plant material with treatment(s). Dry, treated leaves were placed into Petri dishes (100×25 mm) containing filter paper wetted with 500 μl of distilled H2O (“dH2O”). Each dish was then infested with between 5 and 10 larvae, dependent on species. Efficacy ratings were taken at specified intervals. Synergy ratings were calculated for each test.
(§2) % Cexp=A+B−(AB/100), where % Cexp is the expected efficacy and “in which A and B are the control levels given by the single [insecticides].
In this study, the response of soybean looper larvae to Bacillus thuringiensis subsp. aizawai, Bacillus thuringiensis subsp. kurstaki and cyantraniliprole was observed.
Bacillus thuringiensis subsp. aizawai/Bacillus thuringiensis subsp. kurstaki was applied at a concentration of 0.26 ppm (0.26 μg/ml). Cyantraniliprole was applied at a concentration of 1.0 ppm (1.0 μg/ml). The Bacillus thuringiensis subsp. aizawai/Bacillus thuringiensis kurstaki/cyantraniliprole mixture was applied at a concentration of 0.26 ppm Bacillus thuringiensis subsp. aizawai/Bacillus thuringiensis subsp. kurstaki and 1.0 ppm cyantraniliprole.

sugarcane borer larvae = assay: Leaf dip test, sugarcane borer larvae; assay type: in vivo; details: Diatraea saccharalis, foliar, Bta/Btk 0.8125 ppm, cyantraniliprole 1.0 ppm, mixture 0.8125 ppm + 1.0 ppm (Ratio 1:1.23), read-out: % Efficacy
Text: (§3) The following examples were used to determine the synergy of Bacillus thuringiensis subsp. aizawai, Bacillus thuringiensis subsp. kurstaki and cyantraniliprole when controlling diamondback moth, beet armyworm, sugarcane borer, soybean looper, corn earworm, cabbage looper, and southwestern corn borer. Sympatico™ emulsifiable suspension (available from Valent BioSciences LLC) was used as the source of Bacillus thuringiensis subsp. aizawai and Bacillus thuringiensis kurstaki. Sympatico™ contains about a 1:0.67 ratio of Bacillus thuringiensis subsp. kurstaki fermentation solids, spores and toxins to Bacillus thuringiensis subsp. aizawai fermentation solids, spores and toxins. Belt® was used as the source of cyantraniliprole. […] In each example below, the studies were conducted as follows.
as §1
(§4) % Cexp=A+B−(AB/100), where % Cexp is the expected efficacy and “in which A and B are the control levels given by the single [insecticides]. […]

corn earworm larvae = assay: Leaf dip test, corn earworm larvae; assay type: in vivo; details: Helicoverpa zea, foliar, Bta/Btk 2.6 ppm, cyantraniliprole 10.0 ppm, mixture 2.6 ppm + 10.0 ppm (Ratio 1:3.85), read-out: % Efficacy
Method: In each example below, the studies were conducted as follows.
as §1
% Cexp=A+B−(AB/100), where % Cexp is the expected efficacy and “in which A and B are the control levels given by the single [insecticides]. […] Adopting a conservative approach, Applicant will determine if synergy is present at ratios of ≥1.15.
In this study, the response of corn earworm larvae to amounts of Bacillus thuringiensis subsp. aizawai, Bacillus thuringiensis subsp. kurstaki and cyantraniliprole was observed.
Bacillus thuringiensis subsp. aizawai/Bacillus thuringiensis subsp. kurstaki was applied at a concentration of 2.6 ppm (2.6 μg/ml). Cyantraniliprole was applied at a concentration of 10.0 ppm (10.0 μg/ml). The Bacillus thuringiensis subsp. aizawai/Bacillus thuringiensis kurstaki/cyantraniliprole mixture was applied at a concentration of 2.6 ppm Bacillus thuringiensis subsp. kurstaki/Bacillus thuringiensis subsp. aizawai and 10.0 ppm cyantraniliprole.

diamondback moth larvae = assay: Leaf dip test, diamondback moth larvae; assay type: in vivo; details: Plutella xylostella, foliar, Bta/Btk 0.8125 ppm, cyantraniliprole 0.12 ppm, mixture 0.8125 ppm + 0.12 ppm (Ratio 1:0.12), read-out: % Efficacy
Text: The following examples were used to determine the synergy of Bacillus thuringiensis subsp. aizawai, Bacillus thuringiensis subsp. kurstaki and cyantraniliprole when controlling diamondback moth, beet armyworm, sugarcane borer, soybean looper, corn earworm, cabbage looper, and southwestern corn borer. Sympatico™ emulsifiable suspension (available from Valent BioSciences LLC) was used as the source of Bacillus thuringiensis subsp. aizawai and Bacillus thuringiensis kurstaki. Sympatico™ contains about a 1:0.67 ratio of Bacillus thuringiensis subsp. kurstaki fermentation solids, spores and toxins to Bacillus thuringiensis subsp. aizawai fermentation solids, spores and toxins. Belt® was used as the source of cyantraniliprole. The present invention is not limited to the commercial products used in the examples. […]
For these tests, standardized laboratory leaf dip methods were used to inoculate plant material with treatment(s). […] Synergy ratings were calculated for each test. […]
In order to determine synergy, rates below normal field rate ranges must be used. If normal field rate ranges are used, all of the larvae would die (combining a lethal or near lethal dose of Bacillus thuringiensis subsp. aizawai and Bacillus thuringiensis subsp. kurstaki with a lethal dose of cyantraniliprole would most likely lead to larvae death) in every treatment and synergy would not be able to be determined. […]

cabbage looper larvae = assay: Leaf dip test, cabbage looper larvae; assay type: in vivo; details: Trichoplusia ni, foliar, Bta/Btk 0.8125 ppm, cyantraniliprole 0.50 ppm, mixture 0.8125 ppm + 0.50 ppm (Ratio 1:0.62), read-out: % Efficacy
Method: (§5) Sympatico™ emulsifiable suspension (available from Valent BioSciences LLC) was used as the source of Bacillus thuringiensis subsp. aizawai and Bacillus thuringiensis kurstaki. Sympatico™ contains about a 1:0.67 ratio of Bacillus thuringiensis subsp. kurstaki fermentation solids, spores and toxins to Bacillus thuringiensis subsp. aizawai fermentation solids, spores and toxins. Belt® was used as the source of cyantraniliprole. […] In each example below, the studies were conducted as follows.
as §1, §2
In this study, the response of cabbage looper larvae to amounts of Bacillus thuringiensis subsp. aizawai, Bacillus thuringiensis subsp. kurstaki and cyantraniliprole was observed.
Bacillus thuringiensis subsp. aizawai/Bacillus thuringiensis subsp. kurstaki was applied at a concentration of 0.8125 ppm (0.8125 μg/ml). […]

beet armyworm larvae = assay: Leaf dip test, beet armyworm larvae; assay type: in vivo; details: Spodoptera exigua, foliar, Bta/Btk 0.8125 ppm, cyantraniliprole 1.0 ppm, mixture 0.8125 ppm + 1.0 ppm (Ratio 1:1.23), read-out: % Efficacy
Method: as §5, §1, §2
Bacillus thuringiensis subsp. aizawai/Bacillus thuringiensis subsp. kurstaki was applied at a concentration of 0.8125 ppm (0.8125 μg/ml). Cyantraniliprole was applied at a concentration of 1.0 ppm (1.0 μg/ml). […]

[1] = test system: southwestern corn borer larvae; assay: Leaf dip test, southwestern corn borer larvae; assay type: in vivo, Diatraea grandiosella; details: foliar, Bta/Btk 0.8125 ppm, cyantraniliprole 0.1 ppm, mixture 0.8125 ppm + 0.1 ppm (Ratio 1:0.12), read-out: % Efficacy
Text: as §3, §1, §4

CNC(=O)c1cc(C#N)cc(C)c1NC(=O)c1cc(Br)nn1-c1ncccc1Cl [Cyantraniliprole, 3-Bromo-1-(3-chloro-2-pyridinyl)-N-[4-cyano-2-methyl-6-(methylcarbamoyl)phenyl]-1H-pyrazole-5-carboxamide]
Emax at 1 ppm (soybean looper larvae; 24 h after treatment): 12% | Emax at 1 ppm (soybean looper larvae; 48 h after treatment): 41% | Emax at 1 ppm (sugarcane borer larvae; 24 h after treatment): 24% | Emax at 1 ppm (sugarcane borer larvae; 48 h after treatment): 35% | Emax at 10 ppm (corn earworm larvae; 24 h after treatment): 44% | Emax at 10 ppm (corn earworm larvae; 48 h after treatment): 60% | Emax at 0.12 ppm (diamondback moth larvae; 24 h after treatment): 29% | Emax at 0.12 ppm (diamondback moth larvae; 48 h after treatment): 52% | Emax at 0.5 ppm (cabbage looper larvae; 24 h after treatment): 18% | Emax at 0.5 ppm (cabbage looper larvae; 48 h after treatment): 40% | Emax at 1 ppm (beet armyworm larvae; 24 h after treatment): 20% | Emax at 1 ppm (beet armyworm larvae; 48 h after treatment): 35% | Emax at 0.1 ppm ([1]; 24 h after treatment): 15% | Emax at 0.1 ppm ([1]; 48 h after treatment): 32%
